Test results reported in patent US9872919B2, “Prodrugs for selective anticancer therapy” (THE RESEARCH FOUNDATION FOR THE STATE UNIVERSITY OF NEW YORK, priority 2012, dated 2018).
pIC50: −log10 of the molar value. Where a SMILES comes first, the peptide text is derived from it. The star is where a group is joined. Cbz = O=C(OCc1ccccc1)*

What was measured:
[1] = tested on: BxPC3 shSki cells; experiment: MTT cell viability assay, BxPC3 shSki; type: cell-based, human; conditions: for difference in IC50 values shSki versus shGFP: BxPC3 shSki over shGFP; for pIC50: Homo sapiens, BXPC-3, MTT, 72 hr, Ski knockdown
Experimental: (§1) FIG. 24. Effect of the prodrug on cell viability of BxPC3 cells (shGFP and shSki). Cells were treated with the indicated dose of drugs (BKAc-5FCR or 5FCR) for 72 hr followed by MTT assay. Data represent mean values of triplicate measurements±standard deviation. IC50 values were derived from nonlinear curve fit of the dose response data using an outlier's exclusion, variable slope model (GraphPad Prism software). All values are means of at least two independent experiments.
(§2) The in vitro efficacy of the compounds in a series of BxPC3 and CFPac-1 derivatives with reduced Class I HDAC activity following Ski knockdown (shSki), HDAC3 knockdown and control (shGFP) was assessed. The growth inhibitory/viability effects of the compounds (IC50 value, the concentration resulting in 50% growth inhibition) on the various cell lines were determined by dose response curve analysis (GraphPad Prism software) of MTT [3-(4,5dimethylthiazol-2-yl)-2,5-diphenyl-tetrazolium bromide] cell viability assay. If the prodrugs are activated in an HDAC-dependent manner, the cells with reduced HDAC activity would be predicted to be more resistant to the prodrug treatment than control cells, while the effect of free parental drugs on both cells would be expected to be similar.

[2] = tested on: BxPC3 shGFP control cells; experiment: MTT cell viability assay, BxPC3 shGFP; type: cell-based; conditions: Homo sapiens, BXPC-3, 72 hr
Experimental: as §1, §2

[3] = tested on: HCT116, HT29, CCD841-CoN and Caco-2 cells; experiment: Immunological detection of Puro-labeled proteins in cells; type: cell-based, human; conditions: immunoblot; Boc-KAc-Puro 16.9 μM 20 h; Puro 2.1 μM 16 h
Experimental: (§3) FIG. 27. Levels of Puro-incorporated proteins in the cells were monitored by immunoblotting. Indicated cell lines were treated either with vehicle control DMSO or Boc-KAc-Puro (16.9 μM) in the presence or absence of TSA (0.5 μM) for 20 h, followed by preparation of cell lysates. The lower panel (anti-α-Tubulin) serves as a loading control.
as §3, with “28.” for “27.”, “Puro (2.1” for “Boc-KAc-Puro (16.9”, “16” for “20”, “lysates. […]” for “lysates.”
Cultured cells or tissue samples were sonicated in RIPA lysis buffer (1% NP-40, 0.1% SDS, 50 mM Tris-HCl pH 7.4, 150 mM NaCl, 0.5% sodium deoxycholate, 1 mM EDTA) supplemented with PMSF and protease inhibitor cocktail (Roche) on ice followed by clarification. Protein lysates were separated on sodium dodecyl sulfate-polyacrylamide gels and transferred onto nitrocellulose membranes (Whatman). The primary antibodies used were anti-puromycin (3RH11, KeraFAST) and anti-α-tubulin (Sigma-Aldrich). Proteins of interest were detected with anti-mouse secondary antibody by chemiluminescence (ECL Kit, GE Healthcare Life Sciences).

[4] = tested on: HCT116, HT29, CCD841-CoN and Caco-2 cells; experiment: Cell killing by parental Puro (MTS); type: cell-based, human
Experimental: FIG. 14. Inhibition of cell viability by parental Puro. The cell lines were treated with the indicated doses of Puro (0, 1.1, 2.1, 4.2, or 8.4 μM) for 3 d followed by MTS assay. Data represent mean values of triplicate mesurements±s.d.
Cell number was determined by cell counting using improved Neubauer hemacytometer. Cell viability was calculated as the number of viable cells divided by the total number of cells using Trypan Blue Stain (Invitrogen) to distinguish non-viable cells. Data were obtained from duplicated samples with quadruplicate measurements. MTS based cell viability assay was performed using CellTiter 96 Aqueous Cell Proliferation Assay (Promega) according to the manufacturer's instruction. Either 1 μl of DMSO alone or variable concentrations of BKAc-Puro or Puro in DMSO were added to the cell lines seeded at 5×10^4 cells per well in 96-well tissue culture plates in 100 μl of the growth medium, followed by 3-5 d incubation at 37° C. with 5% CO2 atmosphere. […] After additional 2-3 h incubation, the absorbance of the formazan at 490 nm was measured by the microplate reader. […] Determination of non-viable cells using PI staining was performed by adding 1 μg/ml of PI solution (Sigma) to the cell culture, prior to the examination under fluorescence microscopy (Axiovert 3, Carl Zeiss) through a×32 objective equipped with a digital imaging processor (Infinity 3, Lumenera).

[5] = tested on: HDAC and cathepsin L in BxPC3 and CFPac-1 cells; experiment: Live cell enzymatic assay with Boc-Lys(Ac)-AMC in pancreatic cancer cells; type: cell-based, human; conditions: for activation of substrate Boc-Lys(Ac)-AMC (AMC release): 6 hr, Z-FY-CHO 10 μM
Experimental: FIG. 5. A. HDAC assay using different substrates in BxPC3 cells (shGFP and shSki). Cells were incubated with Boc-Lys(Ac)-AMC or Ac-Arg-Gly-Lys(Ac)-AMC (25 μM) for 1 hr with DMSO (vehicle) or TSA (1 μM) as indicated, followed by cell lysis and trypsin treatment, and fluorescence measurements. Data represent mean values of triplicate measurements±standard deviation. RFU, relative fluorescent units. B. Similar experiment was done as in A but without cell lysis and trypsin treatment. Cells were incubated with the substrates for 2.5 hr.
FIG. 6. A. Release of AMC by combined HDAC and endogenous protease-dependent enzymatic reaction in BxPC3 and CFPac-1 cells (shGFP and shSki). Cells were incubated with substrate Boc-Lys(Ac)-AMC (25 μM) for 6 hr with DMSO (vehicle), TSA (1 μM), or Z-FY-CHO (10 μM) as indicated, followed by fluorescence measurements. Data represent mean values of triplicate measurements±standard deviation. RFU, relative fluorescent units. B. Time course of AMC release in BxPC3 cells (shGFP and shSki). Each cells were incubated with Boc-Lys(Ac)-AMC (25 μM) for 2.5, 6.0, and 23 hr with DMSO (vehicle) or TSA (1 μM) as indicated.
(§4) Tissue culture based standard HDAC assays were performed by commercially available fluorimetric HDAC assay kit (SensoLyte, AnaSpec) according to the manufacturer's instruction with modification of using 25 μM Boc-Lys(Ac)-AMC (Bachem) as substrate and measuring parameter (Ex/Em=355 nm/460 nm) for AMC. Basically, HDAC substrate 25 μM Boc-Lys(Ac)-AMC [either with DMSO or 1 μM TSA (Sigma)] was applied to the overnight culture seeded from 6×10^4 cells in 100 μl medium in 96-well tissue culture plates, followed by 2 to 3 h incubation at 37° C. with 5% CO2 atmosphere. Then the deacetylation reaction was terminated by addition of HDAC developer solution containing cell lysis buffer and trypsin reagents. After 15 m incubation at room temperature, the fluorescent signal of AMC was measured by SpectraMax M5 microplate reader (Molecular Devices) at Ex/Em=355 nm/460 nm. Live cell lysyl endopeptidase assay was performed by applying the substrate 25 μM Boc-Lys-AMC (Bachem) [either with DMSO or 100 μM Z-FY-CHO (EMD)] to the overnight culture seeded from 6×10^4 cells in 100 μl medium in 96-well tissue culture plates, followed by 20 h incubation at 37° C. with 5% CO2 atmosphere, then the fluorescent signal of AMC was measured. Live cell enzymatic assay using Boc-Lys(Ac)-AMC was performed by applying the substrate 25 μM Boc-Lys(Ac)-AMC (either with DMSO, 1 μM TSA or 100 μM Z-FY-CHO) to the overnight culture seeded from 6×10^4 cells in 100 μl medium in 96-well tissue culture plates, followed by 20 h incubation at 37° C. with 5% CO2 atmosphere, then the fluorescent signal of AMC was measured. Experiments were repeated at least three times.

[6] = tested on: BXPC-3 cells; experiment: MTS cell viability assay with or without TSA; type: cell-based, human; conditions: 20 μM, 72 hr, with TSA (50 μM as printed)
Experimental: FIG. 25. Selective cytotoxicity by BKAc-5FCR. Human pancreatic BXPC3 cells were treated with DMSO (vehicle), BKAc-5FCR (20 μM), or 5FCR (20 μM) for 72 hr with or without TSA (50 μM) followed by MTS cell viability assay. Representative phase contrast images of cells treated with DMSO (vehicle) or BKAc-5FCR (20 μM) for 72 hr with or without TSA (50 μM) are shown.

[7] = tested on: cathepsin L (CTSL); experiment: Live cell lysyl endopeptidase assay with Boc-Lys-AMC; type: cell-based; conditions: Z-FY-CHO 100 μM, live cells, all cases tested
Experimental: FIG. 2. Comparative live cell lysyl endopeptidase activity of the same cell lines as in FIG. 1 using substrate Boc-Lys-AMC either with vehicle control DMSO or Z-FY-CHO (100 μM). Data represent mean values of triplicate measurements±s.d. RFU, relative fluorescent units.
as §4, with “Then the deacetylation reaction was terminated by addition of HDAC developer solution containing cell lysis buffer and trypsin reagents.” left out, “Live cell enzymatic assay using Boc-Lys(Ac)-AMC was performed by applying the substrate 25 μM Boc-Lys(Ac)-AMC (either with DMSO, 1 μM TSA or 100 μM Z-FY-CHO) to the overnight culture seeded from 6×10^4 cells in 100 μl medium in 96-well tissue culture plates, followed by 20 h incubation at 37° C. with 5% CO2 atmosphere, then the fluorescent signal of AMC was measured. Experiments were repeated at least three times.” left out

Compound | difference in IC50 values shSki versus shGFP [1] | pIC50 [1] | pIC50 [2] | activation of substrate Boc-Lys(Ac)-AMC (AMC release) ([5]; TSA 1 μM) | further results
Nc1nc(=O)n([C@@H]2O[C@H](CO)[C@@H](O)[C@H]2O)cc1F [5FCR, 5-fluorocytidine, reference compound] | no significant changes | 5.92 | 5.89 | – | –
COc1ccc(C[C@H](N)C(=O)N[C@H]2[C@@H](O)[C@H](n3cnc4c(N(C)C)ncnc43)O[C@@H]2CO)cc1 [Puro, puromycin, reference compound] | – | – | – | – | intensity of Puro incorporation, malignant vs normal and non-malignant cells [3]: no difference; cell killing [4]: kill all of these cells examined
CC(=O)NCCCC[C@H](NC(=O)OC(C)(C)C)C(=O)Nc1ccc2c(C)cc(=O)oc2c1 [Boc-Lys(Ac)-AMC] | – | – | – | – | activation of substrate in live cells relative to total HDAC activity ([5]; BxPC3, 25 μM, 2.5 hr, without cell lysis and trypsin): approximately 50%
CC(=O)NCCCCC(NC(=O)OC(C)(C)C)C(=O)Nc1nc(=O)n([C@@H]2O[C@H](CO)[C@@H](O)[C@H]2O)cc1F (stereo partly drawn) [BKAc-5FCR, t-butyl (6-acetamido-1-((1-((2R,3R,4S,5R)-3,4-dihydroxy-5-(hydroxymethyl)tetrahydrofuran-2-yl)-5-fluoro-2-oxo-1,2-dihydropyrimidin-4-yl)amino)-1-oxohexan-2-yl)carbamate] | two-fold | 5.28 | 5.59 | – | cytotoxic effect in the presence of HDAC inhibitor TSA [6]: substantially compromised
CC(/C=C/C(=O)NO)=C\[C@@H](C)C(=O)c1ccc(N(C)C)cc1 [TSA, Trichostatin A] | – | – | – | completely inhibited activation | AMC release, time course ([5]; BxPC3, 20 hr time course, TSA 1 μM): AMC release was inhibited
O=C[C@H](Cc1ccc(O)cc1)NC(=O)[C@H](Cc1ccccc1)NC(=O)OCc1ccccc1 [Z-FY-CHO] (Cbz-Phe-Tyr-aldehyde) | – | – | – | completely abrogated the activation of the substrate | release of AMC from Boc-Lys-AMC [7]: significantly blocked
